Results taken from patent US10793552B2, “Amino pyrimidine ssao inhibitors” (Eli Lilly and Company, priority 2016, dated 2020).
Where two headings read alike, the source gives them in different places. Values belong to the compound of their own block, whether it stands above or below them.

Key:
Type in all cases: in vivo
SSAO = SSAO (Rattus norvegicus (Rat), UniProt O08590); experiment: SSAO Target Engagement in rat plasma and liver; settings: for activity at 0.005 mg/kg / activity at 0.025 mg/kg / activity at 0.12 mg/kg / activity at 0.6 mg/kg / activity at 3 mg/kg / activity at 15 mg/kg: mean ± SEM
Method: The SSAO activity in rat plasma and liver tissues are measured using the MAO-Glo™ assay kit from Promega (V1402). The residual SSAO activity in rats after compound treatment is estimated by measuring the total amine oxidase activity in plasma or liver lysates that are insensitive to the presence of the MAO inhibitor Clogyline and Pargyline. Rats are administered the compound of Example 2 at the doses of 15, 3, 0.6, 0.12, 0.025, 0.005 mg/kg. The control group is administered with the same volume (2 ml/kg) of the dosing vehicle (hydroxyethyl cellulose 1% w/v, 0.25% Tween 80). Plasma and liver at 2 or 24 hours post compound treatment are harvested and stored at −78° C. until analysis. Tissue lysates are prepared by homogenization in a lysis buffer (20 mM HEPES, pH 7.4, 150 mM NaCl, 1 mM EDTA, 1 mM EGTA, 1% Triton X-100 and 1× Roche Complete protease inhibitor tablet). Tissue particles are removed by centrifugation at 12,000 rpm at 4° C. for 30 minutes. 40 μl of plasma or liver lysates is incubated with Clogyline (10 μM) and Pargyline (10 μM) for 20 minutes at room temperature before the addition of the luminogenic substrate (50 μM) for 60 minutes. The product generated is quantified according to the manufacture's procedure. The fraction of activity that is insensitive to the presence of the MAO inhibitors is used as the surrogate for the residual SSAO activity. The compound of Example 2 was evaluated in the protocol essentially as described above administered at various doses.

[1] = Plasma compound levels in 3H diet mice by mass spectroscopy; settings: mouse, treated 76 days, 2 hours after the last dose, all doses
Method: Male C57BL/6N mice are fed with D09100301 diet (Research Diets, 40% fat, 2% cholesterol, 24% fructose, (the, high fat, high cholesterol and high fructose, the “3H diet”) for 150 days. Each mouse is then singly housed after 5 days for an acclimation period. Plasma alanine aminotransferase (ALT) and cytokeratin 18 (CK18) are measured. After one week of recovery, the mice are randomized into 5 groups based on their ALT values, CK18 values, and body weight. Animals of each group are administrated either vehicle (0.5% methylcellulose (MC)+0.25% Tween 80 in distilled water) or the compound of Example 6 (at a 0.06, 2, 6, and 20 mg/kg dose) once daily in a volume of 5 ml/kg for 11 weeks. Blood is collected from mice treated with the compound of Example 6 for 76 days 2 hours after the last dose. Compound levels in the plasma are analyzed by mass spectroscopy.

[2] = test system: C57BL/6N mice fed 3H diet; experiment: Mouse Model of NASH and Fibrosis Induced by 3H Diet; settings: mouse 3H diet; for Score (0-3) Hepatic inflammation Left / Score (0-3) Macrovesicular vaculation Left / Score (0-3) Perisinusoidal fibrosis Left: left lobe; for Score (0-3) Hepatic inflammation Left / Score (0-3) Macrovesicular vaculation Left / Score (0-3) Perisinusoidal fibrosis Left / Score (0-3) Hepatic inflammation Right / Score (0-3) Macrovesicular vaculation Right / Score (0-3) Perisinusoidal fibrosis Right: mean ± SEM; for Score (0-3) Hepatic inflammation Right / Score (0-3) Macrovesicular vaculation Right / Score (0-3) Perisinusoidal fibrosis Right: right lobe
Method: Male C57BL/6N mice are fed with D09100301 diet (Research Diets, 40% fat, 2% cholesterol, 24% fructose, (the, high fat, high cholesterol and high fructose, the “3H diet”) for 150 days. Each mouse is then singly housed after 5 days for an acclimation period. Plasma alanine aminotransferase (ALT) and cytokeratin 18 (CK18) are measured. After one week of recovery, the mice are randomized into 5 groups based on their ALT values, CK18 values, and body weight. […] Blood is collected from mice treated with the compound of Example 6 for 76 days 2 hours after the last dose. Compound levels in the plasma are analyzed by mass spectroscopy. […] At the completion of the study, the animals are sacrificed and their livers excised. Two sections of the left and right lobes are fixed in neutral buffered 10% formalin. Liver tissue slides are stained with hematoxylin and eosin (H&E), Sirius red, and Masson's Trichrome to prepare slides for pathological analysis. All specimens are examined microscopically and scored as a modified Brunt score NASH Activity Score. Scores are based on the grading scheme and end-points as described in Brunt E. M. et al., “Histopathology of nonalcoholic fatty liver disease,” World J. of Gastroenterol, 2010, 16(42), 5286-5296. Group means are then calculated for each individual end-point. The following endpoints are used to characterize the fast food model of NASH in mice as modified from NASH endpoints (See Brunt, E. M. “Histopathology of nonalcoholic fatty liver disease,” Clin Liver Dis., 2009, 13, 533-544 and Brunt, E. M, et al., “Nonalcoholic steatohepatitis: A proposal for grading and staging the histological lesions”, Am J Gastroenterology, 1999, 94(9), 2467-2474.

[3] = liver, 24 hour, n = 6, read-out: SSAO Activity (%) Liver 24 hour
[4] = plasma, 2 hour, n = 6, read-out: SSAO Activity (%) Plasma 2 hour
[5] = plasma, 24 hour, n = 6, read-out: SSAO Activity (%) Plasma 24 hour
[6] = 20 mg/kg once daily 11 weeks, p < 0.05 vs vehicle

SSAO, sequence (O08590 whole entry): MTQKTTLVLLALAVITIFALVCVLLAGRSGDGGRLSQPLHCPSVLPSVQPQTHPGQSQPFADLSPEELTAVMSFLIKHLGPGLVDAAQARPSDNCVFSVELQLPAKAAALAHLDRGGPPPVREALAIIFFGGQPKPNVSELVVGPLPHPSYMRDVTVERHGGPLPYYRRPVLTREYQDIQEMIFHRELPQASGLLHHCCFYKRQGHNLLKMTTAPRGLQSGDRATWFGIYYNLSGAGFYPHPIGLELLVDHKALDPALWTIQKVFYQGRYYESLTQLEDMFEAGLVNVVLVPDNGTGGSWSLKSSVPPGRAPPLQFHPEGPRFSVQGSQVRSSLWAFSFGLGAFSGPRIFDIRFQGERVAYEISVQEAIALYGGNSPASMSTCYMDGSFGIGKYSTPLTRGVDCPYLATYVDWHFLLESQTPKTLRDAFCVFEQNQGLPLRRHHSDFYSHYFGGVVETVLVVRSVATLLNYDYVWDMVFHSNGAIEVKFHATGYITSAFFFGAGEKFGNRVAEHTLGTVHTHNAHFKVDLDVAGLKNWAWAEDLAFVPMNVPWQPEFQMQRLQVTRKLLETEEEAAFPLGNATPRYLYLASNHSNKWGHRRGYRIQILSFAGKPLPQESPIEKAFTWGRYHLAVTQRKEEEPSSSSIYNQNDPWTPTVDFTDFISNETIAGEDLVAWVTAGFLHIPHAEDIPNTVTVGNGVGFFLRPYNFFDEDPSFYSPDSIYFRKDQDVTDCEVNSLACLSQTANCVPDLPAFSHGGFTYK

- activity at 0.005 mg/kg (SSAO; [3]): 75 ± 18%
- activity at 0.005 mg/kg (SSAO; [4]): 31 ± 3%
- activity at 0.005 mg/kg (SSAO; [5]): 70 ± 7%
- activity at 0.025 mg/kg (SSAO; [3]): 68 ± 14%
- activity at 0.025 mg/kg (SSAO; [4]): 21 ± 1%
- activity at 0.025 mg/kg (SSAO; [5]): 55 ± 9%
- activity at 0.12 mg/kg (SSAO; [3]): 45 ± 8%
- activity at 0.12 mg/kg (SSAO; [4]): 7 ± 1%
- activity at 0.12 mg/kg (SSAO; [5]): 35 ± 4%
- activity at 0.6 mg/kg (SSAO; [3]): 16.2 ± 2.9%
- activity at 0.6 mg/kg (SSAO; [4]): 4.3 ± 0.8%
- activity at 0.6 mg/kg (SSAO; [5]): 16.3 ± 2.6%
- activity at 3 mg/kg (SSAO; [3]): 7.1 ± 1.7%
- activity at 3 mg/kg (SSAO; [4]): 3.6 ± 1%
- activity at 3 mg/kg (SSAO; [5]): 8.8 ± 1.3%
- activity at 15 mg/kg (SSAO; [3]): 9.6 ± 2.6%
- activity at 15 mg/kg (SSAO; [4]): -0.6 ± 0.3%
- activity at 15 mg/kg (SSAO; [5]): 6.6 ± 1.8%
- inhibition of SSAO activity in rat plasma and liver (SSAO; doses 0.005 to 15 mg/kg): dose-dependently inhibits SSAO activity
Structure (SMILES): Cl.Cl.NC/C(=C\F)COc1cnc(N2CCC(O)CC2)nc1 [Example 2, 1-[5-[(E)-2-(Aminomethyl)-3-fluoro-allyloxy]pyrimidin-2-yl]piperidin-4-ol dihydrochloride]

- plasma compound levels (in words) [1]: dose-dependent increase
Structure (SMILES): Cl.Cl.NC/C(=C\F)COc1cnc(N2CC[C@H](O)C2)nc1 [Example 6, (3S)-1-[5-[(E)-2-(Aminomethyl)-3-fluoro-allyloxy]pyrimidin-2-yl]pyrrolidin-3-ol; Dihydrochloride]
- Score (0-3) Hepatic inflammation Left ([2]; 0.6 mg/kg once daily 11 weeks): 2.6 ± 0.1
- Score (0-3) Macrovesicular vaculation Left ([2]; 0.6 mg/kg once daily 11 weeks): 2.5 ± 0.1
- Score (0-3) Perisinusoidal fibrosis Left ([2]; 0.6 mg/kg once daily 11 weeks): 2.4 ± 0.2
- Score (0-3) Hepatic inflammation Right ([2]; 0.6 mg/kg once daily 11 weeks): 2.5 ± 0.1
- Score (0-3) Macrovesicular vaculation Right ([2]; 0.6 mg/kg once daily 11 weeks): 2.6 ± 0.1
- Score (0-3) Perisinusoidal fibrosis Right ([2]; 0.6 mg/kg once daily 11 weeks): 1.9 ± 0.2
- Score (0-3) Hepatic inflammation Left ([2]; 2 mg/kg once daily 11 weeks): 2.5 ± 0.1
- Score (0-3) Macrovesicular vaculation Left ([2]; 2 mg/kg once daily 11 weeks): 2.5 ± 0.1
- Score (0-3) Perisinusoidal fibrosis Left ([2]; 2 mg/kg once daily 11 weeks): 2.5 ± 0.2
- Score (0-3) Hepatic inflammation Right ([2]; 2 mg/kg once daily 11 weeks): 2.6 ± 0.1
- Score (0-3) Macrovesicular vaculation Right ([2]; 2 mg/kg once daily 11 weeks): 2.7 ± 0.1
- Score (0-3) Perisinusoidal fibrosis Right ([2]; 2 mg/kg once daily 11 weeks): 1.8 ± 0.2
- Score (0-3) Hepatic inflammation Left ([2]; 6 mg/kg once daily 11 weeks): 2.5 ± 0.2
- Score (0-3) Macrovesicular vaculation Left ([2]; 6 mg/kg once daily 11 weeks): 2.9 ± 0.1
- Score (0-3) Perisinusoidal fibrosis Left ([2]; 6 mg/kg once daily 11 weeks): 2.6 ± 0.2
- Score (0-3) Hepatic inflammation Right ([2]; 6 mg/kg once daily 11 weeks): 2.6 ± 0.2
- Score (0-3) Macrovesicular vaculation Right ([2]; 6 mg/kg once daily 11 weeks): 2.7 ± 0.1
- Score (0-3) Perisinusoidal fibrosis Right ([2]; 6 mg/kg once daily 11 weeks): 2.1 ± 0.3
- hepatic inflammation (in words) ([2]; 20 mg/kg): significant decrease
- macrovesicular vaculation (in words) ([2]; 20 mg/kg): significant decrease
- perisinusoidal fibrosis (in words) ([2]; 20 mg/kg): significant decrease
- Score (0-3) Macrovesicular vaculation Left ([2]; 20 mg/kg once daily 11 weeks): 2.4 ± 0.2
- Score (0-3) Perisinusoidal fibrosis Left ([2]; 20 mg/kg once daily 11 weeks): 1.9 ± 0.2
- Score (0-3) Hepatic inflammation Left ([2]; 20 mg/kg once daily 11 weeks, p < 0.01 vs vehicle): 2.1 ± 0.1
- Score (0-3) Hepatic inflammation Right [2, 6]: 2.1 ± 0.1
- Score (0-3) Macrovesicular vaculation Right [2, 6]: 2.3 ± 0.1
- Score (0-3) Perisinusoidal fibrosis Right [2, 6]: 1.5 ± 0.2
- triglyceride levels in blood (in words) ([2]; 6 and 20 mg/kg): decreased triglyceride levels
- ALT (in words) ([2]; all treated groups): significant decrease
